From patent US9663473B2 (Actelion Pharmaceuticals Ltd, priority 2013, dated 2017)
Counter-ions that a name gives are not always drawn.

Biological target: T1, recombinant human ALX receptor (Homo sapiens, UniProt P25090)
T1 construct: expressed in transfected cells; host or cells: HEK293 (HEK293-hALXR-Gα16)
T1 sequence (P25090 1-351): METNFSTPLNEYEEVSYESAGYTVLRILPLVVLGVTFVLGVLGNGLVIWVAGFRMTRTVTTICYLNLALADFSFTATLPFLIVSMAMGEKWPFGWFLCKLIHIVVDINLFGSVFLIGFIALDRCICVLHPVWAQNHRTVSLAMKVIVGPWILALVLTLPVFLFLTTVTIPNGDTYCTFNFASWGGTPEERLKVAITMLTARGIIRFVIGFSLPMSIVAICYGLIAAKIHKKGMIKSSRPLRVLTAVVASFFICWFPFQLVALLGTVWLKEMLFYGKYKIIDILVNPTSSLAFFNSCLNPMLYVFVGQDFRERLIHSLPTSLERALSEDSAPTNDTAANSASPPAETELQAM
Test: Intracellular calcium measurements (FLIPR), ALX receptor agonistic activity
Type: cell-based
Conditions: HEK293-hALXR-Gα16 cells, Fluo-4 calcium signal, normalized to WKYMVm 10 nM
Procedure, shortened: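 Agonist-induced calcium flux was read by FLIPR (488/540 nm) as baseline-subtracted peak emission, expressed relative to WKYMVm at 10 nM final. Cells used: HEK293-hALXR-Gα16, dye-loaded 60 min at 37° C. with 1 μM Fluo-4 AM before compound dose-response addition.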

Row | EC50 | Structure (SMILES)
1 | 21 nM | COc1ccc(C[C@@H](NC(=O)N[C@@H](Cc2ccccc2)C(N)=O)c2nc3ccccc3[nH]2)cc1 [Example 208, (S)-2-(3-((R)-1-(1H-Benzo[d]imidazol-2-yl)-2-(4-methoxyphenyl)ethyl)ureido)-3-phenylpropanamide]
2 | 1.5 nM | COc1ccc(C[C@@H](NC(=O)N[C@H](C)[C@@H](O)c2ccccc2)c2nc3ccccc3[nH]2)cc1 [Example 209, 1-((R)-1-(1H-Benzo[d]imidazol-2-yl)-2-(4-methoxyphenyl)ethyl)-3-((1S,2R)-1-hydroxy-1-phenylpropan-2-yl)urea]
3 | 167 nM | COc1ccc(C[C@@H](NC(=O)NCc2ccccc2C#N)c2nc3ccccc3[nH]2)cc1 [Example 211, (R)-1-(1-(1H-Benzo[d]imidazol-2-yl)-2-(4-methoxyphenyl)ethyl)-3-(2-cyanobenzyl)urea]
4 | 2.8 nM | COc1ccc(C[C@@H](NC(=O)N[C@H](CO)Cc2ccccc2)c2nc3ccccc3[nH]2)cc1 [Example 212, 1-((R)-1-(1H-Benzo[d]imidazol-2-yl)-2-(4-methoxyphenyl)ethyl)-3-((S)-1-hydroxy-3-phenylpropan-2-yl)urea]
5 | 53 nM | COc1ccc(C[C@@H](NC(=O)Nc2c(-c3ccccc3)noc2C)c2nc3ccccc3[nH]2)cc1 [Example 213, (R)-1-(1-(1H-Benzo[d]imidazol-2-yl)-2-(4-methoxyphenyl)ethyl)-3-(5-methyl-3-phenylisoxazol-4-yl)urea]
6 | 28 nM | COc1ccc(C[C@@H](NC(=O)NC(CN2CCOCC2)c2ccccc2)c2nc3ccccc3[nH]2)cc1 (stereo partly drawn) [Example 214, 1-((R)-1-(1H-Benzo[d]imidazol-2-yl)-2-(4-methoxyphenyl)ethyl)-3-(2-morpholino-1-phenylethyl)urea]
7 | 8.9 nM | COc1ccc(C[C@@H](NC(=O)NCC(c2ccccc2)N2CCOCC2)c2nc3ccccc3[nH]2)cc1 (stereo partly drawn) [Example 215, 1-((R)-1-(1H-Benzo[d]imidazol-2-yl)-2-(4-methoxyphenyl)ethyl)-3-(2-morpholino-2-phenylethyl)urea]
8 | 2.1 nM | COc1ccc(C[C@@H](NC(=O)NCc2cccnc2COC(C)C(F)(F)F)c2nc3ccccc3[nH]2)cc1 (stereo partly drawn) [Example 216, 1-((R)-1-(1H-Benzo[d]imidazol-2-yl)-2-(4-methoxyphenyl)ethyl)-3-((2-(((1,1,1-trifluoropropan-2-yl)oxy)methyl)pyridin-3-yl)methyl)urea]
9 | 19 nM | COc1ccc(C[C@@H](NC(=O)NCc2nccnc2OCC(F)(F)F)c2nc3ccccc3[nH]2)cc1 [Example 217, (R)-1-(1-(1H-Benzo[d]imidazol-2-yl)-2-(4-methoxyphenyl)ethyl)-3-((3-(2,2,2-trifluoroethoxy)pyrazin-2-yl)methyl)urea]
10 | 34 nM | COc1ccc(C[C@@H](NC(=O)NC2COCc3ccccc32)c2nc3ccccc3[nH]2)cc1 (stereo partly drawn) [Example 218, 1-((R)-1-(1H-Benzo[d]imidazol-2-yl)-2-(4-methoxyphenyl)ethyl)-3-(isochroman-4-yl)urea]
11 | 14 nM | COc1ccc(C[C@@H](NC(=O)NCc2ccccc2OCC(F)(F)F)c2nc3ccccc3[nH]2)cc1 [Example 219, (R)-1-(1-(1H-Benzo[d]imidazol-2-yl)-2-(4-methoxyphenyl)ethyl)-3-(2-(2,2,2-trifluoroethoxy)benzyl)urea]
12 | 4.9 nM | O=C(N[C@H](Cc1ccc(Br)cc1)c1nc2ccccc2[nH]1)NC12CCC(O)(CC1)CC2 [Example 220, (R)-1-(1-(1H-Benzo[d]imidazol-2-yl)-2-(4-bromophenyl)ethyl)-3-(4-hydroxybicyclo[2.2.2]octan-1-yl)urea]
13 | 4 nM | Cc1ccc2nc([C@@H](Cc3ccc(Br)cc3)NC(=O)N[C@H]3CC[C@H](O)CC3)[nH]c2c1 [Example 221, 1-((R)-2-(4-Bromophenyl)-1-(6-methyl-1H-benzo[d]imidazol-2-yl)ethyl)-3-(trans-4-hydroxycyclohexyl)urea]
14 | 7.8 nM | O=C(N[C@H](Cc1ccc(Br)cc1)c1nc2ccc(C(F)(F)F)cc2[nH]1)N[C@H]1CC[C@H](O)CC1 [Example 222, 1-((R)-2-(4-Bromophenyl)-1-(6-(trifluoromethyl)-1H-benzo[d]imidazol-2-yl)ethyl)-3-(trans-4-hydroxycyclohexyl)urea]
15 | 178 nM | COc1ccc(C[C@@H](NC(=O)N[C@H]2CC[C@@H](C(=O)OC)CC2)c2nc3ccccc3[nH]2)cc1 [Example 223, cis-Methyl 4-(3-((R)-1-(1H-benzo[d]imidazol-2-yl)-2-(4-methoxyphenyl)ethyl)ureido)cyclohexanecarboxylate]
16 | 8.2 nM | COc1ccc(C[C@@H](NC(=O)N[C@H]2CC[C@H](C(=O)OC)CC2)c2nc3ccccc3[nH]2)cc1 [Example 224, trans-Methyl 4-(3-((R)-1-(1H-benzo[d]imidazol-2-yl)-2-(4-methoxyphenyl)ethyl)ureido)cyclohexanecarboxylate]
17 | 48 nM | COc1ccc(C[C@@H](NC(=O)N[C@H]2CC[C@H](C(=O)O)CC2)c2nc3ccccc3[nH]2)cc1 [Example 225, trans-4-(3-((R)-1-(1H-Benzo[d]imidazol-2-yl)-2-(4-methoxyphenyl)ethyl)ureido)cyclohexanecarboxylic acid, lithium salt]
18 | 11 nM | COC(=O)C1CCCC(NC(=O)N[C@H](Cc2ccc(OC)cc2)c2nc3ccccc3[nH]2)C1 (stereo partly drawn) [Example 228, Methyl 3-(3-((R)-1-(1H-benzo[d]imidazol-2-yl)-2-(4-methoxyphenyl)ethyl)ureido)cyclohexanecarboxylate]
19 | 94 nM | COc1ccc(C[C@@H](NC(=O)NC2CCCC(C(=O)O)C2)c2nc3ccccc3[nH]2)cc1 (stereo partly drawn) [Example 229, Lithium 3-(3-((R)-1-(1H-benzo[d]imidazol-2-yl)-2-(4-methoxyphenyl)ethyl)ureido)cyclohexanecarboxylate]
20 | 21 nM | O=C(NC(Cc1ccc(Br)c(F)c1)c1nc2ccccc2[nH]1)NC12CCC(O)(CC1)CC2 (stereo not drawn) [Example 230, 1-(1-(1H-Benzo[d]imidazol-2-yl)-2-(4-bromo-3-fluorophenyl)ethyl)-3-(4-hydroxybicyclo[2.2.2]octan-1-yl)urea]
21 | 3.7 nM | COc1ccc(CC(NC(=O)NC23CCC(O)(CC2)CC3)c2nc3ccccc3[nH]2)c(F)c1 (stereo not drawn) [Example 233, 1-(1-(1H-Benzo[d]imidazol-2-yl)-2-(2-fluoro-4-methoxyphenyl)ethyl)-3-(4-hydroxybicyclo[2.2.2]octan-1-yl)urea]
22 | 36 nM | O=C(NC(Cc1ccc(C(F)(F)F)c(F)c1)c1nc2ccccc2[nH]1)NC12CCC(O)(CC1)CC2 (stereo not drawn) [Example 238, 1-(1-(1H-Benzo[d]imidazol-2-yl)-2-(3-fluoro-4-(trifluoromethyl)phenyl)ethyl)-3-(4-hydroxybicyclo[2.2.2]octan-1-yl)urea]
23 | 4.1 nM | COc1ccc(CC(NC(=O)NC23CCC(O)(CC2)CC3)c2nc3ccc(F)cc3[nH]2)c(F)c1 (stereo not drawn) [Example 245, 1-(1-(6-Fluoro-1H-benzo[d]imidazol-2-yl)-2-(2-fluoro-4-methoxyphenyl)ethyl)-3-(4-hydroxybicyclo[2.2.2]octan-1-yl)urea]
24 | 4.5 nM | COc1cc(F)c(CC(NC(=O)NC23CCC(O)(CC2)CC3)c2nc3ccccc3[nH]2)c(F)c1 (stereo not drawn) [Example 248, 1-(1-(1H-Benzo[d]imidazol-2-yl)-2-(2,6-difluoro-4-methoxyphenyl)ethyl)-3-(4-hydroxybicyclo[2.2.2]octan-1-yl)urea]
